This test deals with T1, human TSHR (Homo sapiens, UniProt P16473).
T1 construct: expressed in transfected cells
Description: Measurement of antagonist activity using TSH-induced cAMP production in human TSHR-stably expressing CHO cells. The conditions noted are these: human TSH final concentration 50 ng/mL. The format is cell-based. How it is done:
Measurement of Antagonist Activity Using TSH-induced cAMP Production in Human TSHR-stably Expressing CHO Cells as an Indicator
A gene sequence of human TSHR (reference number NM_000369.2) was inserted into a multiple cloning site of pcDNA3.1(+). The prepared plasmid vector was introduced into CHO cells by a lipofection method to establish human TSHR stably expressing CHO cells. The obtained cells were seeded in a poly-D-lysine-coated 96-well plate at 5 x 10^4 cells/well, and cultured for 1 day in F12 medium containing 10% FBS, 400 µg/mL G418, 50 U/mL penicillin, and 50 µg/mL streptomycin under conditions of 37°C and 5% CO2. After removing a medium, the cells were washed twice with 100 µL per well of an assay buffer (Hanks' Balanced Salt Solution containing 20 mM HEPES and 1 mM IBMX). 30 µL of an assay buffer containing a test compound was added to a well, and the mixture was incubated at room temperature for 15 minutes. Next, 30 µL of an assay buffer containing human TSH (R&D Systems, Inc., final concentration 50 ng/mL) was added, and the mixture was incubated at 37°C for 1 hour. The supernatant was removed, and Lysis and Detection Buffer 2 (Cisbio) was added to prepare a cell lysate by incubating at room temperature for 1 hour. According to the instructions for use of a cAMP Gs HiRange kit (Cisbio), a cell lysate was reacted with d2-labeled cAMP and an anti-cAMP Europium Cryptate labeled antibody (Cisbio) in a 384-well white microplate. Next, a fluorescence intensity ratio (measurement wavelengths 665 nm/620 nm) was measured using a multiplate reader (PHERAstar FSX, BMG LABTECH Japan). A fluorescence intensity ratio of each sample was converted into a cAMP content using a standard curve. A cAMP content was converted into a percentage of a control value, and a cAMP production rate was calculated. Using Prism (Graph Pad Software Inc.), a cAMP production rate was plotted against a test compound concentration, and an IC50 value was calculated. The IC50 of each test compound is shown in the above tables. In the tables, IC50 < 3.0 µM was denoted as A, and 3.0 µM ≤ IC50 < 30 µM was denoted as B. The case where activity was observed but an IC50 value could not be calculated was denoted as C.
Background: cAMP levels reflect the balance of adenylyl cyclase and phosphodiesterase activity.

Each structure is given as a SMILES string. pIC50: −log10 of the molar value.

T1 sequence (P16473 21-764): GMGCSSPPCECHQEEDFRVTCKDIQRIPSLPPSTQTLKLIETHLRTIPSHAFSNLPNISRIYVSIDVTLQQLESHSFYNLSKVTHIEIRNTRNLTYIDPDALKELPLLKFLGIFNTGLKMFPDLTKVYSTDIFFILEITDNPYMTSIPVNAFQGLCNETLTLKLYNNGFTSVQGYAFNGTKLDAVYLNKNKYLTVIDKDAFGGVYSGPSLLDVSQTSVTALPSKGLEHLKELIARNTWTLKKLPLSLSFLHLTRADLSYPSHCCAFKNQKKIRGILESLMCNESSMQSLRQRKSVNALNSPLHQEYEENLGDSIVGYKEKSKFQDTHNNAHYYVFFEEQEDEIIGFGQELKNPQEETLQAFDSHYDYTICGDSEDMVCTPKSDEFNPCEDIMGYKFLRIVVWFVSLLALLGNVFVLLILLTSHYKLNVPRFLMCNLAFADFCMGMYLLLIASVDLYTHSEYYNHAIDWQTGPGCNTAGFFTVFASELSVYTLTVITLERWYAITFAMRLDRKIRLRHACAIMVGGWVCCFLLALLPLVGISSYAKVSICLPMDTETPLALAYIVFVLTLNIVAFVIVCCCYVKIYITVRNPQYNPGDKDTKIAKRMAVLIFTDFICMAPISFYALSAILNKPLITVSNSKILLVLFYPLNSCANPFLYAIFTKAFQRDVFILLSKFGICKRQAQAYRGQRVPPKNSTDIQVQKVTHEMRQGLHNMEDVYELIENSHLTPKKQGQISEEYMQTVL

Regarding `NC(=O)N[C@@H]1Cc2ccc(C(F)(F)F)cc2N(Cc2cc(C(F)F)ccc2F)C1=O` [Example C-15, (R)-1-(1-(5-(difluoromethyl)-2-fluorobenzyl)-2-oxo-7-(trifluoromethyl)-1,2,3,4-tetrahydroquinolin-3-yl)urea], the pIC50 (in general, the negative decadic logarithm of the IC50, by convention in mol/L) was more than 5.52. In the case of `NC(=O)N[C@@H]1Cc2ccc(CO)cc2N(Cc2cc(C(F)F)ccc2F)C1=O` [Example C-16, (R)-1-(1-(5-(difluoromethyl)-2-fluorobenzyl)-7-(hydroxymethyl)-2-oxo-1,2,3,4-tetrahydroquinolin-3-yl)urea], the pIC50 was more than 5.52. Compound `NC(=O)N[C@@H]1Cc2c(F)cc(F)cc2N(Cc2cc(C(F)F)ccc2F)C1=O` [Example C-17, (R)-1-(1-(5-(difluoromethyl)-2-fluorobenzyl)-5,7-difluoro-2-oxo-1,2,3,4-tetrahydroquinolin-3-yl)urea] had a pIC50 of more than 5.52. Then `NC(=O)N[C@@H]1Cc2ccc(C(F)F)cc2N(Cc2cc(OC(F)(F)F)ccc2F)C1=O` [Example C-18, (R)-1-(7-(difluoromethyl)-1-(2-fluoro-5-(trifluoromethoxy)benzyl)-2-oxo-1,2,3,4-tetrahydroquinolin-3-yl)urea], with more than 5.52; and `NC(=O)N[C@@H]1Cc2ccc(C(F)F)cc2N(Cc2cc(S(F)(F)(F)(F)F)ccc2F)C1=O` [Example C-19, (R)-1-(7-(difluoromethyl)-1-(2-fluoro-5-(pentafluorosulfanyl)benzyl)-2-oxo-1,2,3,4-tetrahydroquinolin-3-yl)urea], with more than 5.52; and `NC(=O)N[C@@H]1Cc2ccc(C(F)F)cc2N(Cc2cc(C(O)(C(F)(F)F)C(F)(F)F)ccc2F)C1=O` [Example C-20, (R)-1-(7-(difluoromethyl)-1-(2-fluoro-5-(1,1,1,3,3,3-hexafluoro-2-hydroxypropan-2-yl)benzyl)-2-oxo-1,2,3,4-tetrahydroquinolin-3-yl)urea], with more than 5.52. The value for `NC(=O)N[C@@H]1Cc2ccc(F)cc2N(Cc2cc(C(F)(F)F)cc(Cl)c2F)C1=O` [Example C-21, (R)-1-(1-(3-chloro-2-fluoro-5-(trifluoromethyl)benzyl)-7-fluoro-2-oxo-1,2,3,4-tetrahydroquinolin-3-yl)urea] was more than 5.52; that for `NC(=O)N[C@@H]1Cc2cscc2N(Cc2cccc(C(F)(F)F)c2)C1=O` [Example C-22, (R)-1-(2-oxo-1-(3-(trifluoromethyl)benzyl)-1,2,3,4-tetrahydrothieno[3,4-b]pyridin-3-yl)urea] was more than 5.52; that for `NC(=O)N[C@@H]1Cc2ccncc2N(Cc2cccc(C(F)(F)F)c2)C1=O` [Example C-23, (R)-1-(2-oxo-1-(3-(trifluoromethyl)benzyl)-1,2,3,4-tetrahydro-1,7-naphthyridin-3-yl)urea] was 4.52 to 5.52. Compound `CC(c1cc(C(F)(F)F)ccc1F)N1C(=O)[C@H](NC(N)=O)Cc2ccc(F)cc21` (stereo partly drawn) [Example C-24, 1-((3R)-7-fluoro-1-(1-(2-fluoro-5-(trifluoromethyl)phenyl)ethyl)-2-oxo-1,2,3,4-tetrahydroquinolin-3-yl)urea] had a negative logarithm of the IC50 (pIC50) of 4.52 to 5.52. `NC(=O)N[C@@H]1Cc2ccccc2N(CCc2ccccc2)C1=O` [Example C-25, (R)-1-(2-oxo-1-phenethyl-1,2,3,4-tetrahydroquinolin-3-yl)urea]: the negative-log IC50 (pIC50) was 4.52 to 5.52.

With `NC(=O)N[C@@H]1Cc2ccccc2N(CCCc2ccccc2)C1=O` [Example C-26, (R)-1-(2-oxo-1-(3-phenylpropyl)-1,2,3,4-tetrahydroquinolin-3-yl)urea], the negative-log IC50 (pIC50) was less than 4.52. Consider `NC(=O)N[C@@H]1Cc2ccccc2N(CC2CCCCC2)C1=O` [Example C-27, (R)-1-(1-(cyclohexylmethyl)-2-oxo-1,2,3,4-tetrahydroquinolin-3-yl)urea], for which the negative-log IC50 (pIC50) was less than 4.52.

Compound `CNC(=O)N[C@@H]1Cc2ccc(C(F)(F)F)cc2N(Cc2cc(C(F)F)ccc2F)C1=O` [Example C-28, (R)-1-(1-(5-(difluoromethyl)-2-fluorobenzyl)-2-oxo-7-(trifluoromethyl)-1,2,3,4-tetrahydroquinolin-3-yl)-3-methylurea] gave a pIC50 of more than 5.52.

The compound `NC(=O)N[C@@H]1Cc2ccc(C(=O)O)cc2N(Cc2cc(C(F)(F)F)ccc2F)C1=O` [Example C-29, (R)-1-(2-fluoro-5-(trifluoromethyl)benzyl)-2-oxo-3-ureido-1,2,3,4-tetrahydroquinolin-7-carboxylic acid] gave a negative logarithm of the IC50 (pIC50) of less than 4.52.

Take `NC(=O)N[C@@H]1Cc2ccc(C(N)=O)cc2N(Cc2cc(C(F)(F)F)ccc2F)C1=O` [Example C-30, (R)-1-(2-fluoro-5-(trifluoromethyl)benzyl)-2-oxo-3-ureido-1,2,3,4-tetrahydroquinolin-7-carboxamide]: the pIC50 is 4.52 to 5.52. The value for `C=CCc1ccc(F)c(CN2C(=O)[C@H](NC(N)=O)CC[C@H]2C(F)(F)F)c1` [Example D-1, 1-((3R,6S)-1-(5-allyl-2-fluorobenzyl)-2-oxo-6-(trifluoromethyl)piperidin-3-yl)urea] was more than 5.52; that for `NC(=O)N[C@@H]1CC[C@@H](C(F)(F)F)N(Cc2cc(CCC3CC3)ccc2F)C1=O` [Example D-2, 1-((3R,6S)-1-(5-(2-cyclopropylethyl)-2-fluorobenzyl)-2-oxo-6-(trifluoromethyl)piperidin-3-yl)urea] was more than 5.52; that for `NC(=O)N[C@@H]1CC[C@@H]2CC[C@@H](Cc3ccccc3C(F)(F)F)N2C1=O` [Example D-3, 1-((3S,6R,8aR)-5-oxo-3-(2-(trifluoromethyl)benzyl)octahydroindolizin-6-yl)urea] was 4.52 to 5.52. For `NC(=O)N[C@@H]1CC[C@@H](CO)N(Cc2cc(C(F)(F)F)ccc2F)C1=O` [Example D-4, 1-((3R,6S)-1-(2-fluoro-5-(trifluoromethyl)benzyl)-6-(hydroxymethyl)-2-oxopiperidin-3-yl)urea], the pIC50 was 4.52 to 5.52. `NC(=O)N[C@@H]1CC[C@@H](CN2CCCC2)N(Cc2cc(C(F)(F)F)ccc2F)C1=O` [Example D-5, 1-((3R,6S)-1-(2-fluoro-5-(trifluoromethyl)benzyl)-2-oxo-6-(pyrrolidin-1-ylmethyl)piperidin-3-yl)urea] had a pIC50 of less than 4.52. Then `COC[C@@H]1CC[C@@H](NC(N)=O)C(=O)N1Cc1cc(C(F)(F)F)ccc1F` [Example D-6, 1-((3R,6S)-1-(2-fluoro-5-(trifluoromethyl)benzyl)-6-(methoxymethyl)-2-oxopiperidin-3-yl)urea], with more than 5.52; and `CCOC[C@@H]1CC[C@@H](NC(N)=O)C(=O)N1Cc1cc(C(F)(F)F)ccc1F` [Example D-7, 1-((3R,6S)-6-(ethoxymethyl)-1-(2-fluoro-5-(trifluoromethyl)benzyl)-2-oxopiperidin-3-yl)urea], with more than 5.52.

`CC(=O)NC[C@@H]1CC[C@@H](NC(N)=O)C(=O)N1Cc1cc(C(F)(F)F)ccc1F` [Example D-8, N-(((2S,5R)-1-(2-fluoro-5-(trifluoromethyl)benzyl)-6-oxo-5-ureidopiperidin-2-yl)methyl)acetamide] showed a pIC50 of less than 4.52.

`CN(C)C[C@@H]1CC[C@@H](NC(N)=O)C(=O)N1Cc1cc(C(F)(F)F)ccc1F` [Example D-9, 1-((3R,6S)-6-((dimethylamino)methyl)-1-(2-fluoro-5-(trifluoromethyl)benzyl)-2-oxopiperidin-3-yl)urea] had a pIC50 of less than 4.52.

The values above are taken from patent publication EP4818157A1, “N-SUBSTITUTED CYCLIC AMIDE COMPOUND” (Kissei Pharmaceutical Co., Ltd., priority 2023, dated 2025).
